Source: patent publication US9624233B2, “Compounds for treating pruritic conditions” (priority 2015, dated 2017)
“And” between values parts separate entries of the source, which are not always exact repeats. Equal entries are not always repeated.

What was measured:
[1] = molecular target: T1, cloned human δ-opioid receptor expressed in CHO (Homo sapiens, UniProt P41143); test: Opioid receptor binding study, CHO-δ, [3H]DPDPE; conditions: @ 25,000 nM, [3H]DADLE, read-out: % inhibition printed in the IC50 column
T1 construct: expressed in transfected cells; host or cells: CHO cells

κ (KOP) = κ (KOP) (Rattus norvegicus, UniProt P34975); test: Binding screen and IC50 determination, κ (KOP) (agonist radioligand)
Description: (§1) Compound binding was calculated as a % inhibition of the binding of a radioactively labeled ligand specific for each target.

[2] = molecular target: T2, cloned human κ-opioid receptor expressed in CHO (Homo sapiens, UniProt P41145); test: cell-based; design: Max Inh (%): dose or concentration left out as unconfirmed; conditions: opioid-antagonist assay
[3] = molecular target: T2, cloned human κ-opioid receptor expressed in CHO; test: cell-based; conditions: opioid-agonist assay
[4] = molecular target: T3, μ-opioid receptor expressed in HEK cells (Mus musculus, UniProt P42866); test: Opioid receptor binding study, HEK-μ, [3H]DAMGO
T3 construct: expressed in transfected cells; host or cells: HEK (human embryonic kidney) cells

[5] = test system: Cl^− channel (GABA-gated); test: Abuse liability binding screen, Cl− channel (GABA-gated) (antagonist radioligand); conditions: 2.5E−05M
Description: as §1

NMDA = test: Abuse liability binding screen, NMDA (antagonist radioligand); conditions: 2.5E−05M
Description: as §1

[6] = test system: glycine (strychnine−insensitive); format: binding; conditions: 2.5E−05M
Description: as §1

kainate = test: Abuse liability binding screen, kainate (agonist radioligand); conditions: 2.5E−05M
Description: as §1

GABA transporter = test: Abuse liability binding screen, GABA transporter (antagonist radioligand); conditions: 2.5E−05M
Description: as §1

Na^+ channel (site 2) = test: Abuse liability binding screen, Na+ channel (site 2) (antagonist radioligand); conditions: 2.5E−05M
Description: as §1

[7] = molecular target: T2, cloned human κ-opioid receptor expressed in CHO; test: biochemical; format: binding
[8] = molecular target: T1, cloned human δ-opioid receptor expressed in CHO; test: Opioid cell functional assay, opioid-agonist assay, CHO-δ; format: cell-based; conditions: cell functional assays
PCP = test: Abuse liability binding screen, PCP (antagonist radioligand); conditions: 2.5E−05M
Description: as §1

OX2 (h) = molecular target: T4, OX2 (h) (Homo sapiens, UniProt O43614); test: Abuse liability binding screen, OX2 (h) (agonist radioligand)
T4 sequence (O43614 1-444): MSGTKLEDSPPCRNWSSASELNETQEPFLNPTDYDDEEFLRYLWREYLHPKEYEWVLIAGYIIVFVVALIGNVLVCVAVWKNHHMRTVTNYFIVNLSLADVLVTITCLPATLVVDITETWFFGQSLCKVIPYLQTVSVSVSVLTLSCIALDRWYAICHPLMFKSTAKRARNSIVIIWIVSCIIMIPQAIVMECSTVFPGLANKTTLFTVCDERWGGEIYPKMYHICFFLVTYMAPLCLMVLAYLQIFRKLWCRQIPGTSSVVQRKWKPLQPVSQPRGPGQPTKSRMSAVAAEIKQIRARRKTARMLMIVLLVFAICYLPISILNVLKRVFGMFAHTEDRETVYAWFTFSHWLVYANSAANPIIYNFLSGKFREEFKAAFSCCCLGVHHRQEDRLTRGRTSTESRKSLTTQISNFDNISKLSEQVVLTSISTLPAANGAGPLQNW
Description: […]. The abuse liability screen included 44 targets (receptors, transporters, on gated-channel systems) related to the dopamine, norepinephrine, serotonin, gamma-aminobutyric acid (GABA), acetylcholine, N-methyl-D-aspartate (NMDA) cannabinoid and opioid neurotransmitter systems as recommended in FDA Draft guidance on Assessment of Abuse Potential of Drugs, January 2010.
as §1
Results showing an inhibition or stimulation higher than 50% are considered to represent significant effects of the test compounds.

AMPA = test: Abuse liability binding screen, AMPA (antagonist radioligand); conditions: 2.5E−05M
Description: as §1

[9] = Plasma Cmax in HD patients; conditions: human
ER (non-selective) (h) = test: Abuse liability binding screen, ER (non-selective) (h) (agonist radioligand); design: species or system human; conditions: 2.5E−05M
Description: as §1

BZD (central) = test: Abuse liability binding screen, BZD (central) (agonist radioligand); conditions: 2.5E−05M
Description: as §1

[10] = molecular target: T3, μ-opioid receptor expressed in HEK cells; test: Opioid cell functional assay, opioid-antagonist assay, HEK-μ (CTOP); format: cell-based
μ (MOP) (h) = μ (MOP) (h) (Homo sapiens, UniProt P35372); test: biochemical; format: binding
Description: as §1

[11] = molecular target: T3, μ-opioid receptor expressed in HEK cells; test: Opioid cell functional assay, opioid-agonist assay, HEK-μ; format: cell-based
[12] = against a μ-opioid receptor agonist ligand

Sequence of μ (MOP) (h) (P35372 whole entry): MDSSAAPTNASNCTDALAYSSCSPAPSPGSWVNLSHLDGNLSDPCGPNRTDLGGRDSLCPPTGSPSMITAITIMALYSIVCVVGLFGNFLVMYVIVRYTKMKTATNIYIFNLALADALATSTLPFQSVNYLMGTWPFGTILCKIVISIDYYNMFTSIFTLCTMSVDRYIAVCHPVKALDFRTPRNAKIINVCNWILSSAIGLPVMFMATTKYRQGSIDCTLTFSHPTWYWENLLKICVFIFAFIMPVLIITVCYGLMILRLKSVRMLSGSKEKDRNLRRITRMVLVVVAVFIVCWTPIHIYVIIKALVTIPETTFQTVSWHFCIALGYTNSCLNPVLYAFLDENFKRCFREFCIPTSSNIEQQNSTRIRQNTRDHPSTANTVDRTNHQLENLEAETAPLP
T2 sequence (P41145 whole entry): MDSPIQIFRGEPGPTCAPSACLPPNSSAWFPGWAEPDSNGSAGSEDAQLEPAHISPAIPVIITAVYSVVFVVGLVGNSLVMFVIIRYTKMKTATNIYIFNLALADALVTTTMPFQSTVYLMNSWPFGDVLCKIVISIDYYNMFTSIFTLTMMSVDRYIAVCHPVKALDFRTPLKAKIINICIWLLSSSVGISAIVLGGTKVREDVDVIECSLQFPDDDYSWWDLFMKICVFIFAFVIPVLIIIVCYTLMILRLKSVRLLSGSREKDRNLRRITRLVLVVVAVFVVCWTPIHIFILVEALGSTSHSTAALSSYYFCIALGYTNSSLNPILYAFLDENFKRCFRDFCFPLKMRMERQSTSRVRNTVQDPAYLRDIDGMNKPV
T3 sequence (P42866 whole entry): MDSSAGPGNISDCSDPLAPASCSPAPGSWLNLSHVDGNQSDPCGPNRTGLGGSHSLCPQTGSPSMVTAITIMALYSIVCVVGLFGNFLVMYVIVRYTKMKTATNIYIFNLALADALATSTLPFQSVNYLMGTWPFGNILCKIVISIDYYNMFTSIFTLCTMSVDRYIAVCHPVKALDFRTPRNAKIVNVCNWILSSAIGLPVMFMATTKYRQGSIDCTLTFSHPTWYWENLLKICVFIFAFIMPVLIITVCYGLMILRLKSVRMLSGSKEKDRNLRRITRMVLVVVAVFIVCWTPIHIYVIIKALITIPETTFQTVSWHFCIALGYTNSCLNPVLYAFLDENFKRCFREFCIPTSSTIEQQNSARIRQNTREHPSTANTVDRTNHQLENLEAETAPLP
Sequence of κ (KOP) (P34975 whole entry): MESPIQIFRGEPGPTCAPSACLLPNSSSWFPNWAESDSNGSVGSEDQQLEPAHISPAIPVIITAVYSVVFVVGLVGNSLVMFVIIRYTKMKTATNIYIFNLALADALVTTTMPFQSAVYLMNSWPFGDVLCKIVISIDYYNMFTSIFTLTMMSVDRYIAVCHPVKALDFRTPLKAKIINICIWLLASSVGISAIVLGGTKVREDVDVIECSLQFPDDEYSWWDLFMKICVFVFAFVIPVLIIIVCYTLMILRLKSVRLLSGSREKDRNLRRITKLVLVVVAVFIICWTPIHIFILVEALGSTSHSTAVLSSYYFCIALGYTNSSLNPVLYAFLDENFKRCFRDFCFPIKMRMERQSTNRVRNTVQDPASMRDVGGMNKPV
T1 sequence (P41143 whole entry): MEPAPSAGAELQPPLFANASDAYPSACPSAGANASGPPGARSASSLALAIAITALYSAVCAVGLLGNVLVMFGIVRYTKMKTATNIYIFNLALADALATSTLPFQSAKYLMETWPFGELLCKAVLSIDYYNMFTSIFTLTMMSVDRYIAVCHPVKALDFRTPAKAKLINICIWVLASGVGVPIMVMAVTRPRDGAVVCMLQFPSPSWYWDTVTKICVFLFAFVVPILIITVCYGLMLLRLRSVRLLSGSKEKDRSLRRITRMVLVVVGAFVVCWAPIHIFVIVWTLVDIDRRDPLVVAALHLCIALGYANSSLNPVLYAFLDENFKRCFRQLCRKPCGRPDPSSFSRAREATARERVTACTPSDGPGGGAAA

With `O=C(O)CC(CO)CN1CC[C@]23c4c5ccc(O)c4O[C@H]2[C@@H](O)CC[C@@]3(O)[C@H]1C5` (some centres unmarked) [Compound 1] the inhibition at 25 µM [1] was 11%, the IC50 (κ (KOP)) was 74 µM and the Ki (κ (KOP)) was 49 µM. For the same compound, the nH (κ (KOP); IC50 determination) was 0.7, the “Max Inh (%)” value [2] was −10% @ and the IC50 ([2]; Nor-BNI, read-out: EC50 (nM) column (IC50 per footnote)) was greater than 30000 nM. The EC50 [3] was greater than 100 µM, the “Max Inh (%)” value [3] was 14% and the IC50 [4] was 3.2 µM. The Ki [4] was 1300 nM, the “NAL Selectivity relative to Comp1 / M5 (Compound 1 or M5 Ki/NAL Ki)” value ([4]; μ-receptor) was 929 and the “% Inhibition of Control Specific Binding 1st” value [5] was 1.7%. For the same compound, the “% Inhibition of Control Specific Binding 2nd” value [5] was 1.0%, the “% Inhibition of Control Specific Binding Mean” value [5] was 1.3% and the “% Inhibition of Control Specific Binding 1st” value (NMDA) was −12.5%. The “% Inhibition of Control Specific Binding 2nd” value (NMDA) was −9.8%, the “% Inhibition of Control Specific Binding Mean” value (NMDA) was −11.1% and the “% Inhibition of Control Specific Binding 1st” value [6] was −13.5%. The “% Inhibition of Control Specific Binding 2nd” value [6] was −9.7%, the “% Inhibition of Control Specific Binding Mean” value [6] was −11.6% and the “% Inhibition of Control Specific Binding 1st” value (kainate) was 6.3%. The “% Inhibition of Control Specific Binding 2nd” value (kainate) was 34.1%, the “% Inhibition of Control Specific Binding Mean” value (kainate) was 20.2% and the “% Inhibition of Control Specific Binding 1st” value (GABA transporter) was 7.4%. The “% Inhibition of Control Specific Binding 2nd” value (GABA transporter) was −6.2%, the “% Inhibition of Control Specific Binding Mean” value (GABA transporter) was 0.6% and the “% Inhibition of Control Specific Binding 1st” value (Na^+ channel (site 2)) was −4.4%. The “% Inhibition of Control Specific Binding 2nd” value (Na^+ channel (site 2)) was 21.0%, the “% Inhibition of Control Specific Binding Mean” value (Na^+ channel (site 2)) was 8.3% and the IC50 ([7]; CHO-κ, [3H]U 69593) was 74 µM. The Ki ([7]; CHO-κ, [3H]U 69593) was 49 µM, the “NAL Selectivity relative to Comp1 / M5 (Compound 1 or M5 Ki/NAL Ki)” value ([7]; k-receptor) was 13,611 and the “activity at the delta receptor” value [8] was “no activity”. For the same compound, the “% Inhibition of Control Specific Binding 1st” value (PCP) was −12.2%, the “% Inhibition of Control Specific Binding 2nd” value (PCP) was −1.4% and the “% Inhibition of Control Specific Binding Mean” value (PCP) was −6.8%. The “% Inhibition of Control Specific Binding 1st” value (OX2 (h); 2.5E−05M) was −9.6%, the “% Inhibition of Control Specific Binding 2nd” value (OX2 (h); 2.5E−05M) was −11.9% and the “% Inhibition of Control Specific Binding Mean” value (OX2 (h); 2.5E−05M) was −10.7%. For the same compound, the “% Inhibition of Control Specific Binding 1st” value (AMPA) was 0.9%, the “% Inhibition of Control Specific Binding 2nd” value (AMPA) was −3.7% and the “% Inhibition of Control Specific Binding Mean” value (AMPA) was −1.4%. For the same compound, the Cmax [9] was roughly 16 µM, the “% Inhibition of Control Specific Binding 1st” value (ER (non-selective) (h)) was −8.0% and the “% Inhibition of Control Specific Binding 2nd” value (ER (non-selective) (h)) was 4.3%. The “% Inhibition of Control Specific Binding Mean” value (ER (non-selective) (h)) was −1.9%, the “% Inhibition of Control Specific Binding 1st” value (BZD (central)) was 3.4% and the “% Inhibition of Control Specific Binding 2nd” value (BZD (central)) was 3.0%. For the same compound, the “% Inhibition of Control Specific Binding Mean” value (BZD (central)) was 3.2%, the IC50 [10] was greater than 30 µM and the inhibition at 30 µM ([10]; HEK293, read-out: Max Inh (%)) was -1%. The “% Inhibition of Control Specific Binding Mean” value (μ (MOP) (h); 2.5E−05M) was 92.0%, the nH (μ (MOP) (h); IC50 determination) was 0.6 and the IC50 (μ (MOP) (h); [12]) was 3.2 µM. The Ki (μ (MOP) (h); [12]) was 1300 nM, the EC50 ([11]; EC50 (nM), opioid-agonist assay, HEK-μ) was 78000 nM and ~78000 nM and the EC50 ([11]; EC50, μ-opioid receptor partial agonist/antagonist) was roughly 173000 nM. The “μ-agonist EC50 relative to Cmax in HD patients” value ([11]; EC50 exceeding Cmax) was roughly 4 fold and the “Max Inh (%)” value ([11]; opioid-agonist assay, HEK-μ) was 61%.

With `Oc1ccc2c3c1O[C@H]1[C@@H](O)CC[C@@]4(O)[C@@H](C2)N(CC2CCC2)CC[C@]314` [Nalbuphine, nalbuphine] the “% Inhibition of Control Specific Binding 1st” value (OX2 (h); 1.0E−05M) was −11.3%, the “% Inhibition of Control Specific Binding 2nd” value (OX2 (h); 1.0E−05M) was −7.4% and the “% Inhibition of Control Specific Binding Mean” value (OX2 (h); 1.0E−05M) was −9.4%.
